# According to ChEMBL document CHEMBL3885881, “DrugMatrix”:
# Species: Rattus norvegicus
# Test: DrugMatrix - Regimen: Daily Repeat
# Type: toxicity, organism-based, Sprague-Dawley
# Set-up: regimen Daily Repeat, gender Male, age 6-8 weeks
# Conditions: in vivo, po, route oral GAVAGE, vehicle .5 % CMC; for ABSOLUTE BASOPHIL / ABSOLUTE EOSINOPHIL / ABSOLUTE LYMPHOCYTE / ABSOLUTE MONOCYTE / ABSOLUTE SEGMENTED NEUTROPHIL / BASOPHIL / EOSINOPHIL / ERYTHROCYTE COUNT / HEMATOCRIT / HEMOGLOBIN / LEUKOCYTE COUNT / LYMPHOCYTE / MEAN CORPUSCULAR HEMOGLOBIN / MEAN CORPUSCULAR HEMOGLOBIN CONCENTRATION / MEAN CORPUSCULAR VOLUME / MONOCYTE / NEUTROPHIL / NUCLEATED RED BLOOD CELLS / PLATELET COUNT: tissue Blood; for ALANINE AMINOTRANSFERASE / ALBUMIN / ALKALINE PHOSPHATASE / ASPARTATE AMINOTRANSFERASE / BLOOD UREA NITROGEN / CARBON DIOXIDE / CHLORIDE / CHOLESTEROL / CREATINE PHOSPHOKINASE / CREATININE / GLUCOSE / LACTATE DEHYDROGENASE / LIPASE / PHOSPHORUS / POTASSIUM / SODIUM / TOTAL BILIRUBIN / TOTAL PROTEIN / URIC ACID: tissue Plasma
# [1] = 0 mg/kg, 72 h, dose level Control, time 3 day
# [2] = 0 mg/kg, 120 h, dose level Control, time 5 day
# [3] = 44 mg/kg, 72 h, dose level Low, time 3 day
structure (smiles),measurement,setting,value
Brc1ccccc1 [BROMOBENZENE],ABSOLUTE BASOPHIL,[1],0 CELLS/uL
same,ABSOLUTE EOSINOPHIL,[1],15.17 CELLS/uL
same,ABSOLUTE LYMPHOCYTE,[1],10149.83 CELLS/uL
same,ABSOLUTE MONOCYTE,[1],193.33 CELLS/uL
same,ABSOLUTE SEGMENTED NEUTROPHIL,[1],1575 CELLS/uL
same,BASOPHIL,[1],0%
same,EOSINOPHIL,[1],0.17%
same,ERYTHROCYTE COUNT,[1],5.53 x10E6/uL
same,HEMATOCRIT,[1],34.7%
same,HEMOGLOBIN,[1],12.78 G/DL
same,LEUKOCYTE COUNT,[1],11.93 x10E3/uL
same,LYMPHOCYTE,[1],85.5%
same,MEAN CORPUSCULAR HEMOGLOBIN,[1],23.15 pg
same,MEAN CORPUSCULAR HEMOGLOBIN CONCENTRATION,[1],36.9 G/DL
same,MEAN CORPUSCULAR VOLUME,[1],62.82 fL
same,MONOCYTE,[1],1.5%
same,NEUTROPHIL,[1],12.83%
same,NUCLEATED RED BLOOD CELLS,[1],0.5 /100WBC
same,PLATELET COUNT,[1],994.17 x10E3/uL
same,ALANINE AMINOTRANSFERASE,[1],48.17 u/L
same,ALBUMIN,[1],4.37 G/DL
same,ALKALINE PHOSPHATASE,[1],436.5 u/L
same,ASPARTATE AMINOTRANSFERASE,[1],83.17 u/L
same,BLOOD UREA NITROGEN,[1],14.67 mg/dL
same,CARBON DIOXIDE,[1],30.83 mmol/L
same,CHLORIDE,[1],99.17 MEQ/L
same,CHOLESTEROL,[1],86.33 mg/dL
same,CREATINE PHOSPHOKINASE,[1],243.33 u/L
same,CREATININE,[1],0.25 mg/dL
same,GLUCOSE,[1],158 mg/dL
same,LACTATE DEHYDROGENASE,[1],262.33 u/L
same,LIPASE,[1],11 u/L
same,PHOSPHORUS,[1],12.07 mg/dL
same,POTASSIUM,[1],6.52 MEQ/L
same,SODIUM,[1],142.45 MEQ/L
same,TOTAL BILIRUBIN,[1],0.17 mg/dL
same,TOTAL PROTEIN,[1],6.25 G/DL
same,URIC ACID,[1],1.42 mg/dL
same,ABSOLUTE BASOPHIL,[2],0 CELLS/uL
same,ABSOLUTE EOSINOPHIL,[2],0 CELLS/uL
same,ABSOLUTE LYMPHOCYTE,[2],10076.67 CELLS/uL
same,ABSOLUTE MONOCYTE,[2],124 CELLS/uL
same,ABSOLUTE SEGMENTED NEUTROPHIL,[2],966 CELLS/uL
same,BASOPHIL,[2],0%
same,EOSINOPHIL,[2],0%
same,ERYTHROCYTE COUNT,[2],5.57 x10E6/uL
same,HEMATOCRIT,[2],33.37%
same,HEMOGLOBIN,[2],12.73 G/DL
same,LEUKOCYTE COUNT,[2],11.17 x10E3/uL
same,LYMPHOCYTE,[2],90.33%
same,MEAN CORPUSCULAR HEMOGLOBIN,[2],22.9 pg
same,MEAN CORPUSCULAR HEMOGLOBIN CONCENTRATION,[2],38.18 G/DL
same,MEAN CORPUSCULAR VOLUME,[2],59.97 fL
same,MONOCYTE,[2],1%
same,NEUTROPHIL,[2],8.67%
same,NUCLEATED RED BLOOD CELLS,[2],0 /100WBC
same,PLATELET COUNT,[2],1078 x10E3/uL
same,ALANINE AMINOTRANSFERASE,[2],37.17 u/L
same,ALBUMIN,[2],4.2 G/DL
same,ALKALINE PHOSPHATASE,[2],322.17 u/L
same,ASPARTATE AMINOTRANSFERASE,[2],67.67 u/L
same,BLOOD UREA NITROGEN,[2],14 mg/dL
same,CARBON DIOXIDE,[2],27.67 mmol/L
same,CHLORIDE,[2],102.17 MEQ/L
same,CHOLESTEROL,[2],67.67 mg/dL
same,CREATINE PHOSPHOKINASE,[2],171.83 u/L
same,CREATININE,[2],0.27 mg/dL
same,GLUCOSE,[2],172 mg/dL
same,LACTATE DEHYDROGENASE,[2],85.33 u/L
same,LIPASE,[2],8.67 u/L
same,PHOSPHORUS,[2],12 mg/dL
same,POTASSIUM,[2],6.09 MEQ/L
same,SODIUM,[2],144.82 MEQ/L
same,TOTAL BILIRUBIN,[2],0.13 mg/dL
same,TOTAL PROTEIN,[2],6.07 G/DL
same,URIC ACID,[2],2.13 mg/dL
same,ABSOLUTE BASOPHIL,[3],0 CELLS/uL
same,ABSOLUTE EOSINOPHIL,[3],0 CELLS/uL
same,ABSOLUTE LYMPHOCYTE,[3],8803 CELLS/uL
same,ABSOLUTE MONOCYTE,[3],197 CELLS/uL
same,ABSOLUTE SEGMENTED NEUTROPHIL,[3],1233.33 CELLS/uL
same,BASOPHIL,[3],0%
same,EOSINOPHIL,[3],0%
same,ERYTHROCYTE COUNT,[3],5.29 x10E6/uL
same,HEMATOCRIT,[3],32.6%
same,HEMOGLOBIN,[3],12.17 G/DL
same,LEUKOCYTE COUNT,[3],10.23 x10E3/uL
same,LYMPHOCYTE,[3],86.33%
same,MEAN CORPUSCULAR HEMOGLOBIN,[3],23 pg
same,MEAN CORPUSCULAR HEMOGLOBIN CONCENTRATION,[3],37.3 G/DL
same,MEAN CORPUSCULAR VOLUME,[3],61.67 fL
same,MONOCYTE,[3],2%
same,NEUTROPHIL,[3],11.67%
same,NUCLEATED RED BLOOD CELLS,[3],0.33 /100WBC
same,PLATELET COUNT,[3],1006 x10E3/uL
same,ALANINE AMINOTRANSFERASE,[3],42.67 u/L
same,ALBUMIN,[3],4.37 G/DL
same,ALKALINE PHOSPHATASE,[3],351 u/L
same,ASPARTATE AMINOTRANSFERASE,[3],74 u/L
same,BLOOD UREA NITROGEN,[3],14 mg/dL
same,CARBON DIOXIDE,[3],30 mmol/L
same,CHLORIDE,[3],100.67 MEQ/L
same,CHOLESTEROL,[3],85 mg/dL
same,CREATINE PHOSPHOKINASE,[3],192.67 u/L
same,CREATININE,[3],0.21 mg/dL
same,GLUCOSE,[3],153.33 mg/dL
same,LACTATE DEHYDROGENASE,[3],151.33 u/L
same,LIPASE,[3],11.33 u/L
same,PHOSPHORUS,[3],12.27 mg/dL
same,POTASSIUM,[3],6.3 MEQ/L
same,SODIUM,[3],144.5 MEQ/L
same,TOTAL BILIRUBIN,[3],0.1 mg/dL
same,TOTAL PROTEIN,[3],6.13 G/DL
same,URIC ACID,[3],1.47 mg/dL
